Source: ChEMBL document CHEMBL4190382, “Targeting lysine specific demethylase 4A (KDM4A) tandem TUDOR domain - A fragment based approach” (Bioorg Med Chem Lett, 2018)
The source made the active and inactive calls. No cut-off for these calls is given here.

Legend:
[1] = tested on: T1, Lysine-specific demethylase 4A (Homo sapiens), O75164 [Y973A]; test: Binding affinity to thrombin cleavable N-terminal 6His tagged and 13C-IVLM labeled human KDM4A tandem TUDOR domain (897 to 1011 residues) Y973A mutant expressed in Escherichia coli BL21(DE3)-T1R by ITC method
T1 sequence (whole entry): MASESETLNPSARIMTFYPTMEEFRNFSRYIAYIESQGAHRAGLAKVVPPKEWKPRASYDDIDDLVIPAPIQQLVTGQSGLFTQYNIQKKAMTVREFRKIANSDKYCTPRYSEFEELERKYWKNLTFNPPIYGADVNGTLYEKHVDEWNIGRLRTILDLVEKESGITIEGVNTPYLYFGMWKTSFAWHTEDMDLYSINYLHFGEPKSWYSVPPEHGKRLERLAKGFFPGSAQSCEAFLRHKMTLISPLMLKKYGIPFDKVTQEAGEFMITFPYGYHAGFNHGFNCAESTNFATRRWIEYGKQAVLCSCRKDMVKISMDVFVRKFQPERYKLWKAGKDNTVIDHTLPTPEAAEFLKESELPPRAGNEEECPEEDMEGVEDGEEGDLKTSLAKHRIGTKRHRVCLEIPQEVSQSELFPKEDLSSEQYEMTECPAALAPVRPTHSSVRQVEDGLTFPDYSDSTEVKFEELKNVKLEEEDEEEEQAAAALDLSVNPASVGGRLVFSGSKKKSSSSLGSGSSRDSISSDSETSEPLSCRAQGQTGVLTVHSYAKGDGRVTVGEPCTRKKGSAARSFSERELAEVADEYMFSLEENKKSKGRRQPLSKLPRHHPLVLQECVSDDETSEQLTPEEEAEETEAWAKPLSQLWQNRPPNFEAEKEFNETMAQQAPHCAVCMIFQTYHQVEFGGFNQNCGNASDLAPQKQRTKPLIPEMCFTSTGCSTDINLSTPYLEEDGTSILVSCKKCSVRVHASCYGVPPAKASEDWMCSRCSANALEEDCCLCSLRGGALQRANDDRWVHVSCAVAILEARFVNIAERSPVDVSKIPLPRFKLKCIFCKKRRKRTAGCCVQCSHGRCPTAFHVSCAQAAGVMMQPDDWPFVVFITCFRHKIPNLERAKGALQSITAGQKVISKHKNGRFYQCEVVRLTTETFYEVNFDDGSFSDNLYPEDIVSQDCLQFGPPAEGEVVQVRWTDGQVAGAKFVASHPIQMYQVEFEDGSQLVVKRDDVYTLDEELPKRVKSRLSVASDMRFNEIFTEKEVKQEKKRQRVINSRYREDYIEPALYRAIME

[2] = biological target: T2, Lysine-specific demethylase 4B (Homo sapiens, UniProt O94953); test: Binding affinity to 6His-tagged and human KDM4B tandem TUDOR domain (916 to 1030 residues) expressed in Escherichia coli BL21(DE3)-T1R by ITC method
T2 sequence (O94953 whole entry): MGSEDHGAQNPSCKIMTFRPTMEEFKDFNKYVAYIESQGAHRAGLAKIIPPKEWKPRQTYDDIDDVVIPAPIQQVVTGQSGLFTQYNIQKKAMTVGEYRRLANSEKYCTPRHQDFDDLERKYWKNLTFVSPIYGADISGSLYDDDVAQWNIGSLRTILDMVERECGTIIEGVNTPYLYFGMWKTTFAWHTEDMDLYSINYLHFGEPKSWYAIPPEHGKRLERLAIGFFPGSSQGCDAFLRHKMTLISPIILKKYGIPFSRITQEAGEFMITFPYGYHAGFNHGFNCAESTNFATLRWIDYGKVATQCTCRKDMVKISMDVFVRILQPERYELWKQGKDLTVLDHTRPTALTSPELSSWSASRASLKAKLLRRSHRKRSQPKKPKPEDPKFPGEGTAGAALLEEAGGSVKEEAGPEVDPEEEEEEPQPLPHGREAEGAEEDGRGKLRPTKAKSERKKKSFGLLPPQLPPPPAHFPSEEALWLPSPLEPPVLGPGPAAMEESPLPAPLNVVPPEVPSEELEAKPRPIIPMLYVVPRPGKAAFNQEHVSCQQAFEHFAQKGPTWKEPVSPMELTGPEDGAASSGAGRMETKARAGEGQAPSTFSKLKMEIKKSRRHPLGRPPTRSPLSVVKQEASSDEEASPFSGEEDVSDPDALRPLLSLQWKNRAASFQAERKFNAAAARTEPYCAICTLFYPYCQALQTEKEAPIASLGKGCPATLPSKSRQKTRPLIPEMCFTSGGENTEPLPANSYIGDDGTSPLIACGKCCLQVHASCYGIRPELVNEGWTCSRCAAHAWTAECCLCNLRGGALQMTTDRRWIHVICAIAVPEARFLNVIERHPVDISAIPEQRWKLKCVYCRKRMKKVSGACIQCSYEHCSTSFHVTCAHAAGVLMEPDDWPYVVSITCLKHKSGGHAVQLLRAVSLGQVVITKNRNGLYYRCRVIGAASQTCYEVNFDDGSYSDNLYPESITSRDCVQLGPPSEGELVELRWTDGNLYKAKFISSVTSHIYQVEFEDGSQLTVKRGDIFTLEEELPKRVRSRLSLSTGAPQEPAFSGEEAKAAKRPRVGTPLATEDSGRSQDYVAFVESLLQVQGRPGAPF

With CN(C)C[C@H]1C2CCC(c3ccccc3)(C2)[C@H]1O (some centres not stated) the Activity [1] was “inactive” and the Kd [2] was 127 µM.
